Data reported in US8367864B2, “Dimeric double metal salts of (−)-hydroxycitric acid, methods of making and uses of same” (Glykon Technologies Group, LLC, priority 2006, dated 2013).
Converted amounts (≈) assume the structure as drawn.

How the values were obtained:
[1] = Alcohol solubility (1% wt in 50% v/v ethanol); type: physicochemical; details: tested at 1% weight in 50% (v/v) ethanol solution
[2] = kinetic study
Excerpt: This structure is like the soluble double metal HCA salts disclosed by Balasubramanyam et al., (U.S. Pat. No. 6,160,172, issued Dec. 12, 2000; U.S. Pat. No. 6,395,296, issued May 28, 2002).

[3] = physchem
[4] = system: middle-aged rats fed a 30% fat diet; details: cited from earlier work
[5] = system: human hepatoma cell line Hep G2; details: cited from earlier work
[6] = chronic administration; resting and exercising conditions; cited from earlier work
[7] = conditions that elevate de novo lipogenesis; cited from earlier work
[8] = in vivo; cited from earlier work

With `O=C(O)CC(O)(C(=O)O)C(O)C(=O)O` (centres unmarked) [K/Mg-HCA monomer] the “Alcohol Solubility (50% v/v alcohol; 1% wt test)” value [1] was 40%, the “absorption compared to the dimer” value [2] was “less-absorbed” and the solubility [3] was 250 mg/mL (≈ 1200 mM).
In the case of `O=C([O-])CC(O)(C(=O)[O-])C(O)C(=O)[O-].[K+].[K+].[K+]` (centres unmarked) [potassium HCA], the “fat as a percentage of body weight” value [4] is listed as “reducing” and the “protein as a percentage of body weight” value [4] is listed as “increased”.
In the case of `O=C(O)CC(O)(C(=O)O)C(O)C(=O)O` (single isomer, unassigned; (-)) [HCA, (−)-hydroxycitric acid], the “incorporation of [1,5-14C]citrate into fatty acids and cholesterol” value ([5]; 2.5 h and 18 h incubations, 0.5 mM or higher) is given as “strongly inhibited”, the “Cholesterol biosynthesis, of the control value” ([5]; incorporation of tritium from tritiated water) is given as 27% and the respiratory exchange ratio [6] is given as “significantly lower”. The energy expenditure [7] was “increased”, the fat synthesis [7] was “reduced” and the appetite and satiety [8] was “promote appetite suppression and satiety”.
